From US10463649B2, “Inhibitors of Mc1-1 as drugs to overcome resistance to BRAF inhibitors and MEK inhibitors” (Texas Tech University System, priority 2015, dated 2019)

Legend:
Format in all cases: cell-based
[1] = test system: A375 cells transfected with Mcl-1 plasmid; experiment: SRB cell survival in A375 cells transfected with Mcl-1 plasmid; settings: Mcl-1 overexpressing A375 (transient), 72 hours
Protocol: FIG. 3A (A375 cells) and FIG. 3B SK-MEL-28 cells untransfected or transfected with Mcl-1 plasmid were treated with 0.2 μM and 0.4 μM vemurafenib for 72 hours. The cell survival was evaluated by sulforhodamine B assay. […] FIG. 3E A375 and A375-Mcl-1+/+ or FIG. 3F, SK-MEL-28 and SK-MEL-28-Mcl-1+/+ were treated with 0.2 μM and 0.4 μM vemurafenib for 72 hours. The cell survival was evaluated by sulforhodamine B assay.
FIG. 8A (A375) and FIG. 8B (SK-MEL-28) untransfected or transfected with Mcl-1 plasmid were treated with 10 nM dabrafenib or 2 nM trametinib for 72 hours. FIG. 8C A375 and FIG. 8D SK-MEL 28 cells untransfected or transfected with Mcl-1 plasmid were treated with 400 nM vemurafenib or 2 nM trametinib for 72 hours. The cell survival was evaluated by sulforhodamine B assay.
Mcl-1 overexpression. A375 or SK-MEL-28 cells were transiently or stably transfected with plasmid overexpressing Mcl-1 by nucleofection kit (Lonza, Basel, Switzerland) according to manufacturer's protocol and previously described by the inventors (26). Briefly, 2×10^6 cells were suspended in a reaction mixture from the kit specific to the cell line (Kit V for A375 and Kit R for SK-MEL-28 cells). The cells were transferred to the cuvettes and nucleofected using the nucleofector instrument (Amaxa, Cologne, Germany). […]

A375 cells = experiment: Development of resistance to vemurafenib in A375 cells, cytotoxicity evaluated intermittently by SRB assay; settings: for Fold Resistance: A375; for IC50: Homo sapiens
Protocol: (§1) Generation of BRAF-inhibitor resistant cell lines. Vemurafenib resistant clones of A375 and SK-MEL-28 were generated by continuous exposure of cells to escalating concentrations of vemurafenib over a period of one year. The cells were treated with vemurafenib for 72 hours after which fresh media was added to the cells. In all, cells were exposed weekly to two treatments of vemurafenib for 72 hours each with a 24 hour recovery period between the treatments. […] Similarly, dabrafenib resistant cells were cultured by incubating the cells with increasing concentrations of the drug for a period of 3 months as described above. The fold resistant was intermittently evaluated by cytotoxicity analysis. Vemurafenib resistant cell lines were referred to as SK-MEL-28-R or A375-R and dabrafenib resistant cell lines were referred to as A375-DR, SK-MEL-28-DR or WM-239-DR. […] Here, A375 cells were injected subcutaneously in nude mice. When palpable tumors were formed, the mice were orally treated with 30 mg/kg vemurafenib twice a day. After a month, the tumors the resisted vemurafenib treatments were extracted and cultured in vitro.
(§2) Cells were exposed to two treatments of vemurafenib in a week for 72 hours each. Cytotoxicity of these cells was evaluated intermittently by sulforhodamine B assay. […] Cells were exposed to two treatments of vemurafenib in a week for 72 hours each. Cytotoxicity of these cells was evaluated intermittently by sulforhodamine B assay.

SK-MEL-28-R cells = experiment: SRB cell survival in vemurafenib resistant SK-MEL-28-R cells
Protocol: (§3) Each study was performed three times independently. Mcl-1 inhibitor overcomes vemurafenib resistance in melanoma cells. […] The cell survival was evaluated by sulforhodamine B assay.
(§4) FIGS. 4A to 4D show the silencing Mcl-1 reverses vemurafenib resistance. […] The cell survival was evaluated by sulforhodamine B assay.
as §1
(§5) Mcl-1 silencing. Silencing of Mcl-1 was achieved according to the protocol described by the inventors (27). Briefly, 0.3×10^6 cells were plated in OPTI-MEM without antibiotics and transfected with either Mcl-1 siRNA or scrambled siRNA. Complexes were prepared by incubating […] siRNA with 8 μl siPORT transfection reagent in 200 μl OPTI-MEM media without serum or antibiotic for 20 minutes. These complexes were then added to the cells. Six hours after transfection, complexes were replaced with fresh medium.

SK-MEL-28 cells = experiment: Development of resistance to vemurafenib in SK-MEL-28 cells, cytotoxicity evaluated intermittently by SRB assay; settings: for IC50: Homo sapiens; for Fold Resistance: SK-MEL-28
Protocol: as §1, §2

A375-R cells = experiment: SRB cell survival in vemurafenib resistant A375-R cells
Protocol: as §3, §4, §1, §5

## CCCS(=O)(=O)Nc1ccc(F)c(C(=O)c2c[nH]c3ncc(-c4ccc(Cl)cc4)cc23)c1F [vemurafenib]
[1]; 0.2 μM vemurafenib
  Reduction of cell survival: 18%
[1]; 0.4 μM vemurafenib
  Reduction of cell survival: 24%
A375 cells; Month 0, vemurafenib 0 μM
  Fold Resistance: 1
A375 cells; Month 1, vemurafenib 0.2 μM
  Fold Resistance: 2.15
A375 cells; Month 2, vemurafenib 0.2 μM
  Fold Resistance: 2.85
A375 cells; Month 3, vemurafenib 0.4 μM
  Fold Resistance: 4.1
A375 cells; Month 4, vemurafenib 0.4 μM
  Fold Resistance: 4.5
A375 cells; Month 5, vemurafenib 0.8 μM
  Fold Resistance: 4.85
A375 cells; Month 6, vemurafenib 0.8 μM
  Fold Resistance: 5.6
A375 cells; Month 7, vemurafenib 1 μM
  Fold Resistance: 8.5
A375 cells; Month 8, vemurafenib 1 μM
  Fold Resistance: 9.7
A375 cells; Month 9, vemurafenib 4 μM
  Fold Resistance: 12.5
A375 cells; Month 10, vemurafenib 8 μM
  Fold Resistance: 18.4
A375 cells; Month 11, vemurafenib 8 μM
  Fold Resistance: 26
A375 cells; Month 12, vemurafenib 10 μM
  Fold Resistance: 30
A375 cells; A-375, Month 0, vemurafenib 0 μM
  IC50: 0.1 µM
A375 cells; A-375, Month 1, vemurafenib 0.2 μM
  IC50: 0.215 µM
A375 cells; A-375, Month 2, vemurafenib 0.2 μM
  IC50: 0.285 µM
A375 cells; A-375, Month 3, vemurafenib 0.4 μM
  IC50: 0.41 µM
A375 cells; A-375, Month 4, vemurafenib 0.4 μM
  IC50: 0.45 µM
A375 cells; A-375, Month 5, vemurafenib 0.8 μM
  IC50: 0.485 µM
A375 cells; A-375, Month 6, vemurafenib 0.8 μM
  IC50: 0.56 µM
A375 cells; A-375, Month 7, vemurafenib 1 μM
  IC50: 0.85 µM
A375 cells; A-375, Month 8, vemurafenib 1 μM
  IC50: 0.97 µM
A375 cells; A-375, Month 9, vemurafenib 4 μM
  IC50: 1.25 µM
A375 cells; A-375, Month 10, vemurafenib 8 μM
  IC50: 1.84 µM
A375 cells; A-375, Month 11, vemurafenib 8 μM
  IC50: 2.6 µM
A375 cells; A-375, Month 12, vemurafenib 10 μM
  IC50: 3 µM
SK-MEL-28-R cells; SK-MEL-28-R cells, Mcl-1 silenced by siRNA, then 0.4 μM vemurafenib 72 hours
  Decrease of cell survival: 55%
SK-MEL-28-R cells; SK-MEL-28R cells, 72 hours
  IC50: 3300 nM
SK-MEL-28 cells; SK-MEL-28, Month 0, vemurafenib 0 μM
  IC50: 0.075 µM
SK-MEL-28 cells; SK-MEL-28, Month 1, vemurafenib 0.2 μM
  IC50: 0.158 µM
SK-MEL-28 cells; SK-MEL-28, Month 2, vemurafenib 0.2 μM
  IC50: 0.162 µM
SK-MEL-28 cells; SK-MEL-28, Month 3, vemurafenib 0.4 μM
  IC50: 0.264 µM
SK-MEL-28 cells; SK-MEL-28, Month 4, vemurafenib 0.4 μM
  IC50: 0.315 µM
SK-MEL-28 cells; SK-MEL-28, Month 5, vemurafenib 0.8 μM
  IC50: 0.61 µM
SK-MEL-28 cells; SK-MEL-28, Month 6, vemurafenib 0.8 μM
  IC50: 0.673 µM
SK-MEL-28 cells; SK-MEL-28, Month 7, vemurafenib 1 μM
  IC50: 0.735 µM
SK-MEL-28 cells; SK-MEL-28, Month 8, vemurafenib 1 μM
  IC50: 0.754 µM
SK-MEL-28 cells; SK-MEL-28, Month 9, vemurafenib 4 μM
  IC50: 0.824 µM
SK-MEL-28 cells; SK-MEL-28, Month 10, vemurafenib 8 μM
  IC50: 1.24 µM
SK-MEL-28 cells; SK-MEL-28, Month 11, vemurafenib 8 μM
  IC50: 1.86 µM
SK-MEL-28 cells; SK-MEL-28, Month 12, vemurafenib 10 μM
  IC50: 3.3 µM
SK-MEL-28 cells; Month 0, vemurafenib 0 μM
  Fold Resistance: 1
SK-MEL-28 cells; Month 1, vemurafenib 0.2 μM
  Fold Resistance: 2.1
SK-MEL-28 cells; Month 2, vemurafenib 0.2 μM
  Fold Resistance: 2.24
SK-MEL-28 cells; Month 3, vemurafenib 0.4 μM
  Fold Resistance: 3.52
SK-MEL-28 cells; Month 4, vemurafenib 0.4 μM
  Fold Resistance: 4.2
SK-MEL-28 cells; Month 5, vemurafenib 0.8 μM
  Fold Resistance: 8.13
SK-MEL-28 cells; Month 6, vemurafenib 0.8 μM
  Fold Resistance: 8.97
SK-MEL-28 cells; Month 7, vemurafenib 1 μM
  Fold Resistance: 9.8
SK-MEL-28 cells; Month 8, vemurafenib 1 μM
  Fold Resistance: 10.05
SK-MEL-28 cells; Month 9, vemurafenib 4 μM
  Fold Resistance: 10.99
SK-MEL-28 cells; Month 10, vemurafenib 8 μM
  Fold Resistance: 16.48
SK-MEL-28 cells; Month 11, vemurafenib 8 μM
  Fold Resistance: 24.85
SK-MEL-28 cells; Month 12, vemurafenib 10 μM
  Fold Resistance: 44
A375-R cells; A375-R cells, Mcl-1 silenced by siRNA, then 0.4 μM vemurafenib 72 hours
  Decrease of cell survival: 65%
A375-R cells; A375R cells, 72 hours
  IC50: 3000 nM
